In patent US10059701B2 (Merck Patent GmbH, priority 2015, dated 2018):
pIC50: −log10 of the molar value. Counter-ions that a name gives are not always drawn.

Key:
IRAK4 = target: T1, IRAK4 (Homo sapiens, UniProt Q9NWZ3); test: IRAK4 enzymatic assay (ADP-Glo luminescence); format: biochemical; conditions: purified human recombinant His-TEV-IRAK4 (1-460), ATP 2 μM
T1 construct: His-TEV-IRAK4 (1-460); His (N); TEV cleavage site (N)
T1 sequence (Q9NWZ3 1-460): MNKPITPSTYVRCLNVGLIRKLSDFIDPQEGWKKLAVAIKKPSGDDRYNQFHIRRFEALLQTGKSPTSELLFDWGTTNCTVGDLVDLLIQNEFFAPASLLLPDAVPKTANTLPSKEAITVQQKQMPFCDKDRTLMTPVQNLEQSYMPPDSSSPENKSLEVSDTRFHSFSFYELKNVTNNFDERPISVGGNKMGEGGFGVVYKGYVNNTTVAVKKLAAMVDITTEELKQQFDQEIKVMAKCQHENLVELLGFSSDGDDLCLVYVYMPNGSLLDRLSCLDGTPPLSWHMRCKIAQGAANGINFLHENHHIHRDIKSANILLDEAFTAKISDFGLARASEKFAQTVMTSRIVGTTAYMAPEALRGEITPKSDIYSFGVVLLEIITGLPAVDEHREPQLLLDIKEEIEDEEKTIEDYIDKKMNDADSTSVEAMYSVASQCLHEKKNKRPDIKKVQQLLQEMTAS
Procedure, shortened: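 Recombinant His-TEV-IRAK4 (1-460) at 0.3 μg/ml preincubated 15 min at RT with compounds (10 μM to 0.5 nM) in Hepes pH 7.0 buffer with MgCl2/MnCl2. Reaction started with 2 μM ATP and 300 nM STK1-biotin peptide, run 2 h at RT. ADP formed read by ADP-Glo luminescence.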

IRAK1 = target: T2, IRAK1 (Homo sapiens, UniProt P51617); test: IRAK1 enzymatic assay (ADP-Glo luminescence); format: biochemical; conditions: purified human recombinant His-TEV-IRAK1 (194-712)
T2 construct: His-TEV-IRAK1 (194-712); His (N); TEV cleavage site (N)
T2 sequence (P51617 194-712): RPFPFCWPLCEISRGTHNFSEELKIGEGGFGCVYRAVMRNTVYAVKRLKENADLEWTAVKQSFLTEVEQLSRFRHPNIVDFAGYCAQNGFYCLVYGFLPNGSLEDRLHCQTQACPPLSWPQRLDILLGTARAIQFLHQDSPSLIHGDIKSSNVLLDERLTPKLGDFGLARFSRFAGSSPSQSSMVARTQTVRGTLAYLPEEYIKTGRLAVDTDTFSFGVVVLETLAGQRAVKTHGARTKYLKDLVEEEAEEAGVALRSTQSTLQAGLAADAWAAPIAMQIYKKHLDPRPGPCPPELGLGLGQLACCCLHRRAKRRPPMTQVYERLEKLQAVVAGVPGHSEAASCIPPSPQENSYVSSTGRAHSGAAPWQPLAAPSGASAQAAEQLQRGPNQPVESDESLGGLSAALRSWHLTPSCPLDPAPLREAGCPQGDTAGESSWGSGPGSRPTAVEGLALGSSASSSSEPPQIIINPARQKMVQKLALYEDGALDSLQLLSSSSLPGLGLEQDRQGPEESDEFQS
Procedure, shortened: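 Recombinant human His-TEV-IRAK1 (194-712), 0.3 μg/ml, preincubated 15 min at RT with compounds (10 μM to 0.5 nM) in 50 mM Hepes pH 7.0, 10 mM MgCl2, 2 mM DTT, 0.1% BSA. ATP-started reaction run 2 hours at RT; ADP formed from ATP hydrolysis/autophosphorylation read by ADP-Glo luminescence.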

Compound | pIC50 (IRAK4) | pIC50 (IRAK1)
O=C(/N=c1\[nH]c2cc(N3CCCN(C4CC4)CC3=O)ccc2n1CCCO)c1cccc(C(F)(F)F)c1 [Example 192, (E)-N-(5-(4-cyclopropyl-2-oxo-1,4-diazepan-1-yl)-1-(3-hydroxypropyl)-1H-benzo[d]imidazol-2(3H)-ylidene)-3-(trifluoromethyl)benzamide] | ≥ 7.00 | 6.00 to 7.00
O=C(/N=c1\[nH]c2cc(N3CCOCC3=O)ccc2n1CCCO)c1cccc(Cl)c1 [Compound 106, (E)-3-chloro-N-(1-(3-hydroxypropyl)-5-(3-oxomorpholino)-1H-benzo[d]imidazol-2(3H)-ylidene)benzamide] | ≥ 7.00 | 6.00 to 7.00
O=C(/N=c1\[nH]c2cc(N3CCCOC3=O)ccc2n1CC1COC1)c1cccc(C(F)(F)F)c1 [Compound 158, (E)-N-(1-(oxetan-3-ylmethyl)-5-(2-oxo-1,3-oxazinan-3-yl)-1H-benzo[d]imidazol-2(3H)-ylidene)-3-(trifluoromethyl)benzamide] | ≥ 7.00 | 6.00 to 7.00
O=C(/N=c1\[nH]c2cc(N3CCOCC3=O)ccc2n1[C@H]1CC[C@@H](CO)CC1)c1cccc(C(F)(F)F)c1 [Compound 122, cis-(E)-N-(1-(4-(hydroxymethyl)cyclohexyl)-5-(3-oxomorpholino)-1H-benzo[d]imidazol-2(3H)-ylidene)-3-(trifluoromethyl)benzamide] | ≥ 7.00 | ≥ 7.00
C[C@H](CCO)n1/c(=N/C(=O)c2cccc(C(F)(F)F)c2)[nH]c2cc(N3CCCOC3=O)ccc21 [Compound 43, (R,E)-N-(1-(4-hydroxybutan-2-yl)-5-(2-oxo-1,3-oxazinan-3-yl)-1H-benzo[d]imidazol-2(3H)-ylidene)-3-(trifluoromethyl)benzamide] | ≥ 7.00 | 6.00 to 7.00
CC1(C)OCCN(c2ccc3c(c2)[nH]/c(=N\C(=O)c2cccc(C(F)(F)F)c2)n3CCCO)C1=O [Example 223, (E)-3-(trifluoromethyl)-N-(5-(2,2-dimethyl-3-oxomorpholino)-1-(3-hydroxypropyl)-1H-benzo[d]imidazol-2(3H)-ylidene)benzamide] | ≥ 7.00 | ≥ 7.00
O=C(/N=c1\[nH]c2cc(N3CCOCC3=O)ccc2n1CC1(CO)CC1)c1cc(F)cc(C(F)(F)F)c1 [Compound 25, (E)-3-fluoro-N-(1-((1-(hydroxymethyl)cyclopropyl)methyl)-5-(3-oxomorpholino)-1H-benzo[d]imidazol-2(3H)-ylidene)-5-(trifluoromethyl)benzamide] | ≥ 7.00 | 6.00 to 7.00
COc1cc2c(cc1N1CCOCC1=O)[nH]/c(=N\C(=O)c1cccc(C(F)F)c1)n2CC1(CO)CC1 [Compound 52, (E)-3-(difluoromethyl)-N-(1-((1-(hydroxymethyl)cyclopropyl)methyl)-6-methoxy-5-(3-oxomorpholino)-1H-benzo[d]imidazol-2(3H)-ylidene)benzamide] | ≥ 7.00 | ≥ 7.00
O=C(/N=c1\[nH]c2cc(-n3ccccc3=O)ccc2n1CCCO)c1cccc(C(F)(F)F)c1 [Example 193, (E)-N-(1-(3-hydroxypropyl)-5-(2-oxopyridin-1(2H)-yl)-1H-benzo[d]imidazol-2(3H)-ylidene)-3-(trifluoromethyl)benzamide] | ≥ 7.00 | 6.00 to 7.00
CC(C)(F)Cn1/c(=N/C(=O)c2cccc(C(F)(F)F)c2)[nH]c2cc(N3CCCOC3=O)ccc21 [Compound 178, (E)-N-(1-(2-fluoro-2-methylpropyl)-5-(2-oxo-1,3-oxazinan-3-yl)-1H-benzo[d]imidazol-2(3H)-ylidene)-3-(trifluoromethyl)benzamide] | ≥ 7.00 | 6.00 to 7.00
O=C(/N=c1\[nH]c2cc(N3CCOCC3=O)ccc2n1CCCO)c1ccc(F)c(C(F)(F)F)c1 [Compound 5, (E)-4-fluoro-N-(1-(3-hydroxypropyl)-5-(3-oxomorpholino)-1H-benzo[d]imidazol-2(3H)-ylidene)-3-(trifluoromethyl)benzamide] | ≥ 7.00 | ≥ 7.00
O=C(/N=c1\[nH]c2cc(N3C(=O)CN4CCC3CC4)ccc2n1CCCO)c1cccc(C(F)F)c1 [Example 212, (E)-3-(difluoromethyl)-N-(1-(3-hydroxypropyl)-5-(3-oxo-1,4-diazabicyclo[3.2.2]nonan-4-yl)-1H-benzo[d]imidazol-2(3H)-ylidene)benzamide] | ≥ 7.00 | 6.00 to 7.00
CC1(C)CCOC(=O)N1c1ccc2[nH]c(=NC(=O)c3cccc(C(F)(F)F)c3)n(CCCO)c2c1 [Example 221] | ≥ 7.00 | 6.00 to 7.00
O=C(/N=c1\[nH]c2cc(N3CCOCC3=O)ccc2n1CCCO)c1cccc(CF)c1 [Compound 104, (E)-3-(fluoromethyl)-N-(1-(3-hydroxypropyl)-5-(3-oxomorpholino)-1H-benzo[d]imidazol-2(3H)-ylidene)benzamide] | ≥ 7.00 | 6.00 to 7.00
O=C(/N=c1\[nH]c2cc(N3CCCOC3=O)ccc2n1CCCO)c1cccc(C(F)F)c1 [Compound 29, (E)-3-(difluoromethyl)-N-(1-(3-hydroxypropyl)-5-(2-oxo-1,3-oxazinan-3-yl)-1H-benzo[d]imidazol-2(3H)-ylidene)benzamide] | ≥ 7.00 | ≥ 7.00
C[C@H](CCO)n1/c(=N/C(=O)c2cccc(OC(F)F)c2)[nH]c2cc(N3CCOCC3=O)ccc21 [Compound 65, (R,E)-3-(difluoromethoxy)-N-(1-(4-hydroxybutan-2-yl)-5-(3-oxomorpholino)-1H-benzo[d]imidazol-2(3H)-ylidene)benzamide] | ≥ 7.00 | ≥ 7.00
CC1(C)NCCN(c2ccc3c(c2)[nH]/c(=N\C(=O)c2cccc(C(F)(F)F)c2)n3CCCO)C1=O [Compound 191, (E)-N-(5-(3,3-dimethyl-2-oxopiperazin-1-yl)-1-(3-hydroxypropyl)-1H-benzo[d]imidazol-2(3H)-ylidene)-3-(trifluoromethyl)benzamide hydrochloride] | ≥ 7.00 | 6.00 to 7.00
O=C(/N=c1\[nH]c2cc(N3CCOCC3=O)c(Br)cc2n1CCCO)c1cccc(C(F)F)c1 [Compound 49, (E)-N-(6-bromo-1-(3-hydroxypropyl)-5-(3-oxomorpholino)-1H-benzo[d]imidazol-2(3H)-ylidene)-3-(difluoromethyl)benzamide] | ≥ 7.00 | 6.00 to 7.00
O=C(/N=c1\[nH]c2cc(N3CCN(C4CC4)CCC3=O)ccc2n1CCCO)c1cccc(C(F)(F)F)c1 [Example 191, (E)-N-(5-(4-cyclopropyl-7-oxo-1,4-diazepan-1-yl)-1-(3-hydroxypropyl)-1H-benzo[d]imidazol-2(3H)-ylidene)-3-(trifluoromethyl)benzamide] | ≥ 7.00 | 6.00 to 7.00
N#Cc1cccc(C(=O)/N=c2\[nH]c3cc(N4CCOCC4=O)ccc3n2[C@H]2CC[C@@H](O)CC2)c1 [Compound 55, cis-(E)-3-cyano-N-(1-(4-hydroxycyclohexyl)-5-(3-oxomorpholino)-1H-benzo[d]imidazol-2(3H)-ylidene)benzamide] | ≥ 7.00 | ≥ 7.00
CC(=O)N1CCC(n2/c(=N/C(=O)c3cccc(C(F)F)c3)[nH]c3cc(N4CCOCC4=O)ccc32)CC1 [Compound 131, (E)-N-(1-(1-acetylpiperidin-4-yl)-5-(3-oxomorpholino)-1H-benzo[d]imidazole-2(3H)-ylidene)-3-(difluoromethyl)benzamide] | ≥ 7.00 | 6.00 to 7.00
CC(=O)N1CCC(n2/c(=N/C(=O)c3cccc(C(F)(F)F)c3)[nH]c3cc(N4CCOCC4=O)ccc32)CC1 [Compound 130, (E)-N-(1-(1-acetylpiperidin-4-yl)-5-(3-oxomorpholino)-1H-benzo[d]imidazole-2(3H)-ylidene)-3-(trifluoromethyl)benzamide] | ≥ 7.00 | ≥ 7.00
O=C(/N=c1\[nH]c2cc(N3CCOCC3=O)ccc2n1C1(CCO)CCCCC1)c1cccc(C(F)(F)F)c1 [Compound 114, (E)-N-(1-(1-(2-hydroxyethyl)cyclohexyl)-5-(3-oxomorpholino)-1H-benzo[d]imidazol-2(3H)-ylidene)-3-(trifluoromethyl)benzamide] | < 6.00 | < 6.00
O=C(/N=c1\[nH]c2cc(N3CCOCC3=O)c(C3CC3)cc2n1CCCO)c1cccc(C(F)F)c1 [Example 209, (E)-N-(6-cyclopropyl-1-(3-hydroxypropyl)-5-(3-oxomorpholino)-1H-benzo[d]imidazol-2(3H)-ylidene)-3-(difluoromethyl)benzamide] | ≥ 7.00 | ≥ 7.00
O=C(/N=c1\[nH]c2cc(N3CCCOC3=O)ccc2n1CC1(F)CCOCC1)c1cccc(C(F)(F)F)c1 [Example 229, (E)-N-(1-((4-fluorotetrahydro-2H-pyran-4-yl)methyl)-5-(2-oxo-1,3-oxazinan-3-yl)-1H-benzo[d]imidazol-2(3H)-ylidene)-3-(trifluoromethyl)benzamide] | ≥ 7.00 | 6.00 to 7.00
